Results reported in US11311462B2, “Adhesive monomers for dental materials” (Mitsui Chemicals, Inc., priority 2017, dated 2022).

Assay: Three-point bending test of cured product
Format: physicochemical
Experimental: The composition prepared as described above was packed in a 2×2×25 mm SUS mold, covered with a cover film, and then irradiated with light from a dental visible light irradiator (α Light V, manufactured by J. Morita Tokyo MFG. Corp.) for 3 minutes on each side, namely, for a total of 6 minutes on both sides to cure the composition. The cured product was stored in deionized water at 37° C. for 24 hours, and then subjected to a three-point bending test with a general-purpose tester (Precise Versatile Material Tester 210X, manufactured by INTESCO Co., Ltd.) under conditions in which the distance between supports was 20 mm and the cross head speed was 1.0 mm/min. The results of the bending test of the cured products of the compositions to be used as the dental materials are shown in Table 2.

[1] = Table 2, composition: compound 1.80 g, UDMA 2.5 g, TEGDMA 0.74 g, plus 0.5 parts by weight TPO, cured product stored in deionized water at 37° C. 24 hours
[2] = Table 3, composition: compound 60, UDMA 30, TEGDMA 10 parts by weight, plus 0.5 parts TPO
[3] = Table 5, filled pasty composition in parts by weight: compound 8.0, UDMA 20, TEGDMA 10, 4-META 2.0, CQ 0.2, 2-butoxyethyl 4-(dimethylamino)benzoate 0.4, glass filler 59

Structure (SMILES) | Cured product bending test result Elastic modulus [1] [GPa] | Cured product bending test result Maximum stress [1] [MPa] | Cured product bending test result Elastic modulus [2] [GPa] | Cured product bending test result Maximum stress [2] [MPa] | Cured product bending test result Elastic modulus [3] [GPa]
C=C(C)C(=O)OCCNC(=O)OCC(COC(=O)NCCOC(=O)C(=C)C)OP(=O)(O)O [Compound 2] | 2.3 | 102 | 2.2 | 92 | 6.5
C=C(C)C(=O)OCCNC(=O)OCC(COCC(COC(=O)NCCOC(=O)C(=C)C)OP(=O)(O)O)OC(=O)NCCOC(=O)C(=C)C (stereo not drawn) [Compound 4] | 2.4 | 102 | 2.3 | 88 | –
C=C(C)C(=O)OCCOCCNC(=O)OCC(COC(=O)NCCOCCOC(=O)C(=C)C)OP(=O)(O)O [Compound 6] | 2.0 | 89 | 1.3 | 66 | –
C=C(C)C(=O)OCCCCCCCCCCOP(=O)(O)O [MDP, 10-methacryloyloxydecyl dihydrogen phosphate, reference compound] | 1.7 | 85 | 0.32 | 22 | 5.7
